Test results as given in ChEMBL document CHEMBL1201862, “PubChem BioAssay data set” (2004).
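Briefly, cells in 96-well plates were exposed to five compound concentrations for 48 h, and endpoints were estimated by linear interpolation. GI50 = concentration required for 50% inhibition of growth.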 Calls of active or inactive are those of the source. Rule as the data show it: active = GI50 up to about 1.1 µM and inactive = higher.

Columns and labels:
Experiment in all cases: NCI anticancer screen, dose series, 48 h
DLD-1 = test system: DLD-1
DMS-273 = test system: DMS-273
M19-MEL = test system: M19-MEL
RXF 631 = test system: RXF 631
SNB-78 = test system: SNB-78
XF498 = test system: XF498
Hs-578T = test system: Hs-578T
HOP-18 = test system: HOP-18
LXFL 529 = test system: LXFL 529

SMILES	GI50 (DLD-1)	GI50 (DMS-273)	GI50 (M19-MEL)	GI50 (SNB-78)	GI50 (XF498)	GI50 (Hs-578T)	other results
Cc1cc(C)nc(NS(=O)(=O)c2ccc(Nc3c4ccccc4nc4c(C(=O)N5CCN(CCOS(C)(=O)=O)CC5)ccc(Cl)c34)cc2)n1	> 100 µM (inactive)	> 100 µM (inactive)	> 100 µM (inactive)	> 100 µM (inactive)	> 100 µM (inactive)		GI50 (RXF 631): > 100 µM (inactive)
O=c1c(-c2ccccc2)c(SCCCN2CCN(c3cccc(Cl)c3)CC2)n(-c2ccccc2)c(=S)n1-c1ccccc1						> 100 µM (inactive)	
Cn1c2c([N+](=O)[O-])[se]nc2c(=O)n1-c1ccc([N+](=O)[O-])cc1	0.746 µM (active)	2.5 µM (inactive)		1.99 µM (inactive)	2.26 µM (inactive)		GI50 (HOP-18): 2.82 µM (inactive); GI50 (LXFL 529): 1.25 µM (inactive); GI50 (RXF 631): 1.5 µM (inactive)
N=c1c2ccccc2nc2oc3cc([N+](=O)[O-])ccc3n12						4.23 µM (inactive)	
CN1CCC2(CC1)C(=O)N(N1CCCCCC1)C(=O)N2c1ccccc1						42.2 µM (inactive)	
O=c1c(C(c2ccc3ccccc3c2)c2c(O)oc3cc(O)ccc3c2=O)c(O)oc2cc(O)ccc12						21.3 µM (inactive)	
CNC(C)C(O)c1ccc2oc3cc(=O)c4ccccc4c-3nc2c1 (centres undefined)						2.26 µM (inactive)	
COc1c2c(cc3c1OCO3)C13C=CC(OC)CC1N(CC3)C2.[O-][Cl+3]([O-])([O-])O (centres undefined)						> 100 µM (inactive)	
C[C@@]12CC[C@H]3[C@@H]4CCC(=O)N[C@@]4(C)CC[C@@H]3[C@@]1(C)CC[C@H](OC(=O)Cc1ccc(N(CCCl)CCCl)cc1)C2	19.7 µM (inactive)	15.2 µM (inactive)	17.5 µM (inactive)	19.5 µM (inactive)			GI50 (HOP-18): 18 µM (inactive)
CCCc1onc(CCC(=O)N(Cc2ccccc2)Cc2ccccc2)c1CC	> 100 µM (inactive)	> 100 µM (inactive)	> 100 µM (inactive)	> 100 µM (inactive)	> 100 µM (inactive)		GI50 (LXFL 529): > 100 µM (inactive); GI50 (RXF 631): > 100 µM (inactive)
COc1cc(CCc2ccc(OCCN(C)C)cc2)cc(OC)c1OC	> 100 µM (inactive)	> 100 µM (inactive)	> 100 µM (inactive)	> 100 µM (inactive)	38.5 µM (inactive)		GI50 (HOP-18): > 100 µM (inactive); GI50 (LXFL 529): 77.6 µM (inactive); GI50 (RXF 631): 88.7 µM (inactive)
Clc1ccc(-c2nn3c(COc4ccc(OCc5nnc6sc(-c7ccc(Cl)cc7)nn56)c(Cl)c4)nnc3s2)cc1						30.3 µM (inactive)	
CCCCCCCCCCCC1CCCC(C)N1 (centres undefined)	24.5 µM (inactive)	65.2 µM (inactive)	56.2 µM (inactive)	73.3 µM (inactive)	47.4 µM (inactive)		GI50 (HOP-18): 87.9 µM (inactive)
O=S(=O)(O)SCCNCCCCCC1CCCCC1						14.5 µM (inactive)	
CCOC(=O)/C=C(\N=P(c1ccccc1)(c1ccccc1)c1ccccc1)C(F)(F)C(F)(F)C(F)(F)C(F)(F)C(F)(F)F						> 100 µM (inactive)	
O=C(/C=C/c1ccc2c(c1)OCO2)NCCc1ccco1						65.3 µM (inactive)	
Cc1cc(N(CCC#N)CCC#N)ccc1/C=C(\NC(=O)/C=C/c1ccccc1)NC(=O)Nc1ccccc1C	78.3 µM (inactive)	> 100 µM (inactive)	> 100 µM (inactive)	51.5 µM (inactive)	> 10 µM (inactive)		GI50 (LXFL 529): 47.6 µM (inactive); GI50 (RXF 631): 84.1 µM (inactive)

SMILES	GI50 (DLD-1)	GI50 (DMS-273)	GI50 (M19-MEL)	GI50 (SNB-78)	GI50 (XF498)	GI50 (Hs-578T)	other results
CC1=C(Oc2ccccc2)C(CCC(=O)O)c2c(O)cc(Cl)c(O)c21 (centres undefined)	> 100 µM (inactive)	> 100 µM (inactive)	> 100 µM (inactive)	> 100 µM (inactive)	> 100 µM (inactive)		GI50 (RXF 631): > 100 µM (inactive)
CC(C)c1cc2c(c(O)c1O)[C@@]1(C)CCCC(C)(C)C1=C(O)C2						1.81 µM (inactive)	
O=C(O)CC(Cc1ccc2c(c1)OCO2)C(=O)O (centres undefined)						> 100 µM (inactive)	
CS(=O)(=O)OCC(CCl)(CCl)CCl						> 100 µM (inactive)	
COc1cc(/C=C/C(=N\NC(N)=S)c2sc(NNC(C)=O)nc2C)ccc1O						> 100 µM (inactive)	
O=C(Cc1ccccc1)NN1C(=O)C(Cl)C1c1ccccc1 (centres undefined)	> 100 µM (inactive)		> 100 µM (inactive)	> 100 µM (inactive)	24.6 µM (inactive)		GI50 (HOP-18): > 100 µM (inactive); GI50 (LXFL 529): 20 µM (inactive)
O=C(O)CCC(=O)N1c2ccccc2CC1c1c[nH]c2ccccc12 (centres undefined)		> 100 µM (inactive)	> 100 µM (inactive)	> 100 µM (inactive)	> 100 µM (inactive)		GI50 (HOP-18): > 100 µM (inactive); GI50 (LXFL 529): > 100 µM (inactive)
CC(=O)Oc1ccc(-c2cc3ccccc3oc2=O)cc1						> 100 µM (inactive)	
Cc1c2ccccc2nc2[nH]c3ccncc3c12						50.7 µM (inactive)	
CCCCN(CCCC)C1=Nc2ccccc2-n2c(nnc2C(=O)OCC)C1						> 100 µM (inactive)	
CNC(=O)/C(=C/c1ccc(OC)cc1)c1cc(OC)c(OC)c(OC)c1	2.25 µM (inactive)	0.516 µM (active)	1.74 µM (inactive)	4.94 µM (inactive)	4.95 µM (inactive)	1.61 µM (inactive)	GI50 (HOP-18): > 71.1 µM (inactive); GI50 (LXFL 529): 4.43 µM (inactive); GI50 (RXF 631): 7.45 µM (inactive)
CCCCCCCCCCCCCCCCNCCCN(C)CCCN	16.8 µM (inactive)	17.8 µM (inactive)	19.9 µM (inactive)	16.9 µM (inactive)			GI50 (LXFL 529): 18.6 µM (inactive)
Fc1ccc(C(OCCN2CC3CC2CN3)c2ccc(F)cc2)cc1 (centres undefined)						57.3 µM (inactive)	
COC(=O)C1(NC(=O)C(CC(=O)OCc2ccccc2)NC(=O)OCc2ccccc2)CCCCCCC1 (centres undefined)						45.6 µM (inactive)	
O=C(/N=N/c1ccc(Br)cc1)NNc1ccc(Br)cc1						> 10 µM (inactive)	
c1ccc(CN[C@]23C4C5CC6C7C5C2C7[C@@](NCc2ccccc2)(C64)N3Cc2ccccc2)cc1 (some centres undefined)						> 100 µM (inactive)	
